Legend:
[1] = DRUGMATRIX: Tumor Necrosis Factor (TNF), Non-Selective radioligand binding (ligand: [125I] TNF-alpha); type: cell membranes, Membrane; details: u-937; Not Active = under 50% inhibition at 10 µM
[2] = biological target: Melanocortin receptor 5 (Homo sapiens, UniProt P33032); type: cell membranes, HEK293, Membrane; details: hek293; note: in other assays of this panel Not Active means under 50% inhibition at 10 µM
[3] = biological target: T1, Caspase-1 (Homo sapiens, UniProt P29466); design: species or system Escherichia coli;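 note: Caspase-1 enzyme inhibition assay with a peptide substrate; in other assays of this panel Not Active means under 50% inhibition at 10 µM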
T1 sequence (P29466 whole entry): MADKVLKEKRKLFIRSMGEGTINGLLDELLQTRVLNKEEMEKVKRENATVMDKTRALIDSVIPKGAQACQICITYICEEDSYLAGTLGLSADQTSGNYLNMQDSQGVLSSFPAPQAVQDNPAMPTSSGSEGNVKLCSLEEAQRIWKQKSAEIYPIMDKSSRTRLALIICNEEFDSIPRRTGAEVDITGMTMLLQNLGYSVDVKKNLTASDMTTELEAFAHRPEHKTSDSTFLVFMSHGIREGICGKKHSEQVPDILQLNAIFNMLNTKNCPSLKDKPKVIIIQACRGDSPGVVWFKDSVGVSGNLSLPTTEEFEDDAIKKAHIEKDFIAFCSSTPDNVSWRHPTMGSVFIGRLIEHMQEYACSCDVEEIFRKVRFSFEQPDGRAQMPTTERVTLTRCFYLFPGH

[4] = DRUGMATRIX: Atrial Natriuretic Factor (ANF) radioligand binding (ligand: [125I] ANF (rat)); type: cell membranes, Cavia porcellus, Dunkin-Hartley, Adrenal gland, Membrane; details: Not Active = under 50% inhibition at 10 µM
[5] = biological target: Cannabinoid receptor 1 (Homo sapiens, UniProt P21554); type: cell membranes, Chem-1, Membrane; details: chem-1; note: in other assays of this panel Not Active means under 50% inhibition at 10 µM
[6] = biological target: Protein kinase C alpha type (Homo sapiens, UniProt P17252); type: cell-based; details: sf9;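 note: inhibition of PKCalpha kinase activity measured in an enzyme assay with histone as the phosphorylation substrate; in other assays of this panel Not Active means under 50% inhibition at 10 µM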
[7] = biological target: T2, Interstitial collagenase (Homo sapiens, UniProt P03956); experiment: biochemical; type: tissue-based, Rheumatoid synovial fibroblasts
T2 sequence (P03956 whole entry): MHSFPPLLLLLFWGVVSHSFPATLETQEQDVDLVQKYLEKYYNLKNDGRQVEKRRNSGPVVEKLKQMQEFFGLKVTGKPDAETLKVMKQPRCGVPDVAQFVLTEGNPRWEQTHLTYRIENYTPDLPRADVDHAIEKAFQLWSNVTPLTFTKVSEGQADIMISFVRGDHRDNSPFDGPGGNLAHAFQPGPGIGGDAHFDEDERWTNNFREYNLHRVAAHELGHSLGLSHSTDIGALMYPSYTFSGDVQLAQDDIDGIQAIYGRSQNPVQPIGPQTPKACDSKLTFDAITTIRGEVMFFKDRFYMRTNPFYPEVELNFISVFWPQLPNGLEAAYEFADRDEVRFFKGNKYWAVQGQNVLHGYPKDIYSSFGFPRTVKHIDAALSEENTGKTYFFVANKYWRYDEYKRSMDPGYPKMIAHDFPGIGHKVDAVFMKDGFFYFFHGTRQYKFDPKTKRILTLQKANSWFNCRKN

Melanocortin receptor 5, sequence (P33032 whole entry): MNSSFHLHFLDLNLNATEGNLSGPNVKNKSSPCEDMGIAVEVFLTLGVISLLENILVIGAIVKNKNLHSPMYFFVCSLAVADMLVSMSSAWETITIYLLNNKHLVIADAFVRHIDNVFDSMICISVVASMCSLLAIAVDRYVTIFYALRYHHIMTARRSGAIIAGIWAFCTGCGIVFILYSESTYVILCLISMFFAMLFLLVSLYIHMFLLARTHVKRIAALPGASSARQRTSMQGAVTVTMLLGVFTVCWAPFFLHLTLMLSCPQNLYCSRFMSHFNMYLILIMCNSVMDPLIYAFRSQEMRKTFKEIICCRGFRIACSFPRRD
Cannabinoid receptor 1, sequence (P21554 whole entry): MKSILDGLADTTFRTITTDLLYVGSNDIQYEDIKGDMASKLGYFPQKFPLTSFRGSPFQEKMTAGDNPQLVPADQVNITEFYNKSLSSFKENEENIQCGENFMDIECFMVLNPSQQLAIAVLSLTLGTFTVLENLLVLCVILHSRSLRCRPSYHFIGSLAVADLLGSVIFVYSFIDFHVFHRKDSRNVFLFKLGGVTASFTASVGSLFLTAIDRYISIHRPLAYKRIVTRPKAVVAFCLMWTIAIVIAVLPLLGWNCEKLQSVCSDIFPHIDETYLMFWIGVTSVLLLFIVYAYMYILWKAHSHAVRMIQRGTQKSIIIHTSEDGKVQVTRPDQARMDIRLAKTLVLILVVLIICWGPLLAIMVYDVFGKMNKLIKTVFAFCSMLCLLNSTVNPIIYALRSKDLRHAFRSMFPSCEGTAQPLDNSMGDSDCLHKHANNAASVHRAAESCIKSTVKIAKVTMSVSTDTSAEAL

CCOc1cc(N)c(Cl)cc1C(=O)NCC1CN(Cc2ccc(F)cc2)CCO1 (configuration not stated) [MOSAPRIDE]
Not Active: IC50 [1] | Ki [1] | IC50 [2] | IC50 [3] | IC50 [4] | Ki [4] | IC50 [5] | IC50 [6] | IC50 [7]

O=C(c1ccccc1)c1ccc2n1CCC2C(=O)O (configuration not stated) [KETOROLAC]
Not Active: IC50 [1] | Ki [1] | IC50 [2] | IC50 [3] | IC50 [4] | Ki [4] | IC50 [5] | IC50 [6] | IC50 [7]

Nc1nc(N)c2nc(-c3ccccc3)c(N)nc2n1
Not Active: IC50 [1] | Ki [1] | IC50 [2] | IC50 [4] | Ki [4] | IC50 [5] | IC50 [6] | IC50 [7]
3.66 µM: IC50 ([3]; read-out: IC50)

Oc1ccc(/C=C/c2cc(O)cc(O)c2)cc1 [RESVERATROL]
Not Active: IC50 [1] | Ki [1] | IC50 [2] | IC50 [3] | IC50 [4] | Ki [4] | IC50 [5] | IC50 [6] | IC50 [7]

Cc1ccnc(NS(=O)(=O)c2ccc(N)cc2)n1 [SULFAMERAZINE]
Not Active: IC50 [1] | Ki [1] | IC50 [2] | IC50 [3] | IC50 [4] | Ki [4] | IC50 [5] | IC50 [6] | IC50 [7]

CCN1CCCC1CNC(=O)c1cc(S(N)(=O)=O)ccc1OC (configuration not stated) [SULPIRIDE]
Not Active: IC50 [1] | Ki [1] | IC50 [2] | IC50 [3] | IC50 [4] | Ki [4] | IC50 [5] | IC50 [6] | IC50 [7]

O=C1CC[C@@]2(O)[C@H]3Cc4ccc(O)c5c4[C@@]2(CCN3CC2CC2)[C@H]1O5 [NALTREXONE]
Not Active: IC50 [1] | Ki [1] | IC50 [2] | IC50 [3] | IC50 [4] | Ki [4] | IC50 [5] | IC50 [6] | IC50 [7]

CCN(CC)C(=S)SSC(=S)N(CC)CC
Not Active: IC50 [1] | Ki [1] | IC50 [2] | IC50 [3] | IC50 [4] | Ki [4] | IC50 [5] | IC50 [6] | IC50 [7]

O=C(OC[C@H]1O[C@@H](OC(=O)c2cc(O)c(O)c(OC(=O)c3cc(O)c(O)c(O)c3)c2)[C@H](OC(=O)c2cc(O)c(O)c(OC(=O)c3cc(O)c(O)c(O)c3)c2)[C@@H](OC(=O)c2cc(O)c(O)c(OC(=O)c3cc(O)c(O)c(O)c3)c2)[C@@H]1OC(=O)c1cc(O)c(O)c(OC(=O)c2cc(O)c(O)c(O)c2)c1)c1cc(O)c(O)c(OC(=O)c2cc(O)c(O)c(O)c2)c1 [TANNIC ACID]
Not Active: IC50 [1] | Ki [1] | IC50 [2] | IC50 [3] | IC50 [4] | Ki [4] | IC50 [5] | IC50 [6] | IC50 [7]

C=CCc1ccc2c(c1)OCO2 [SAFROLE]
Not Active: IC50 [1] | Ki [1] | IC50 [2] | IC50 [3] | IC50 [4] | Ki [4] | IC50 [5] | IC50 [6] | IC50 [7]

C#C[C@]1(O)CC[C@H]2[C@@H]3[C@H](C)CC4=C(CCC(=O)C4)[C@H]3CC[C@@]21C [TIBOLONE]
Not Active: IC50 [1] | Ki [1] | IC50 [2] | IC50 [3] | IC50 [4] | Ki [4] | IC50 [5] | IC50 [6] | IC50 [7]

CC[C@@]1(O)C(=O)OCc2c1cc1n(c2=O)Cc2cc3c(CN(C)C)c(O)ccc3nc2-1 [TOPOTECAN]
Not Active: IC50 [1] | Ki [1] | IC50 [2] | IC50 [3] | IC50 [4] | Ki [4] | IC50 [5] | IC50 [6] | IC50 [7]

CC1(C)[C@H](C(=O)O)N2C(=O)C[C@H]2S1(=O)=O [SULBACTAM]
Not Active: IC50 [1] | Ki [1] | IC50 [2] | IC50 [3] | IC50 [4] | Ki [4] | IC50 [5] | IC50 [6] | IC50 [7]

CCN(CC)N=O [N-NITROSODIETHYLAMINE]
Not Active: IC50 [1] | Ki [1] | IC50 [2] | IC50 [3] | IC50 [4] | Ki [4] | IC50 [5] | IC50 [6] | IC50 [7]

C[C@]12CCC(=O)C[C@@H]1CC[C@@H]1[C@@H]2CC[C@]2(C)[C@@H](O)CC[C@@H]12 [STANOLONE]
Not Active: IC50 [1] | Ki [1] | IC50 [2] | IC50 [3] | IC50 [4] | Ki [4] | IC50 [5] | IC50 [6] | IC50 [7]

Cc1cccc(C)c1NC(=O)C(C)N (configuration not stated) [TOCAINIDE]
Not Active: IC50 [1] | Ki [1] | IC50 [2] | IC50 [3] | IC50 [4] | Ki [4] | IC50 [5] | IC50 [6] | IC50 [7]

LEAD(IV) ACETATE
Not Active: IC50 [1] | Ki [1] | IC50 [2] | Ki [2] | IC50 [3] | Ki [3] | IC50 [4] | Ki [4] | IC50 [5] | Ki [5] | IC50 [6] | Ki [6] | IC50 [7] | Ki [7]

CC#C[C@]1(O)CC[C@H]2[C@@H]3CCC4=CC(=O)CCC4=C3[C@@H](c3ccc(N(C)C)cc3)C[C@@]21C [MIFEPRISTONE]
Not Active: IC50 [1] | Ki [1] | IC50 [2] | IC50 [3] | IC50 [4] | Ki [4] | IC50 [5] | IC50 [6] | IC50 [7]

CS(=O)(=O)c1ccc(C2=C(c3ccccc3)C(=O)OC2)cc1 [ROFECOXIB]
Not Active: IC50 [1] | Ki [1] | IC50 [2] | IC50 [3] | IC50 [4] | Ki [4] | IC50 [5] | IC50 [6] | IC50 [7]

COC(=O)Nc1nc2ccc(C(=O)c3ccccc3)cc2[nH]1 [MEBENDAZOLE]
Not Active: IC50 [1] | Ki [1] | IC50 [2] | IC50 [3] | IC50 [4] | Ki [4] | IC50 [5] | IC50 [6] | IC50 [7]

CC(O)C(=O)O (configuration not stated) [LACTIC ACID]
Not Active: IC50 [1] | Ki [1] | IC50 [2] | IC50 [3] | IC50 [4] | Ki [4] | IC50 [5] | IC50 [6] | IC50 [7]

CC(N)C12CC3CC(CC(C3)C1)C2 (configuration not stated) [RIMANTADINE]
Not Active: IC50 [1] | Ki [1] | IC50 [2] | IC50 [3] | IC50 [4] | Ki [4] | IC50 [5] | IC50 [6] | IC50 [7]

CN1C[C@H](CNC(=O)OCc2ccccc2)C[C@@H]2c3cccc4c3c(cn4C)C[C@H]21 [METERGOLINE]
Not Active: IC50 [1] | Ki [1] | IC50 [2] | IC50 [3] | IC50 [4] | Ki [4] | IC50 [5] | IC50 [6] | IC50 [7]

Cc1cc2c(s1)Nc1ccccc1N=C2N1CCN(C)CC1 [OLANZAPINE]
Not Active: IC50 [2] | IC50 [3] | IC50 [5] | IC50 [6] | IC50 [7]

CNCCCC12CCC(c3ccccc31)c1ccccc12 [MAPROTILINE]
Not Active: IC50 [2] | IC50 [3] | IC50 [5] | IC50 [6] | IC50 [7]

CN(C)CCC=C1c2ccccc2COc2ccccc21 [DOXEPIN]
Not Active: IC50 [2] | IC50 [3] | IC50 [5] | IC50 [6] | IC50 [7]
